The data set has as its system HL60 promyelocytic leukemia cells. The data set can be described thus: Cytotoxicity assay in HL60 cells (Annexin V FITC / PI flow cytometry). Conditions: 48 hours; for EC50: 0-80 μM, % Viability (Annexin V low, PI low). It counts as cell-based. The protocol: We examined the cytotoxicity of peptides BCL-26 and BCL-27 using an assay in HL60 promyelocytic leukemia cells. HL60 PML suspension cells were set at a density of 3.5×10^3 cells/well in 150 μL of RPMI+1.5% fetal bovine serum (FBS) in a 96 well dish. BCL-26 or BCL-27, reconstituted at a concentration of 10 mg/mL in 20 mM His, pH 7.5, was added to each well at a volume of 50 μL to a final concentration range of 0-80 μM. Cells were incubated with peptide for 48 hours at 37° C. Cell viability was quantified by flow cytometry using abcam Annexin V FITC apoptosis detection kit. Briefly, cells were washed with PBS and resuspended in 1× assay buffer containing Annexin V FITC and propidium iodide (PI). Annexin V detects apoptotic cells, and PI stains dead cells. After staining, apoptotic cells show green fluorescence, dead cells show red and green fluorescence, and live cells show little or no fluorescence. Cells were selected for analysis based on forward scatter (FSC) vs. side scatter (SSC), and analyzed by BD Accuri C6 Plus flow cytometer to detect Annexin V-FITC binding (Ex=488 nm; Em=530 nm) using FITC signal detector and PI staining by the phycoerythrnn emission signal detector. Percentage of Annexin V^low and PI^low were quantified and presented as % Viability.
We examined the cytotoxicity of additional retro inverso and mixed chirality BCL9 mimetic peptides in HL60 cells using the assay described above.

Square brackets hold non-standard residues; d marks the D form. Peptide text beside a SMILES is read from it. * marks the point of attachment. Octanoyl = CCCCCCCC(=O)* Some results are limits rather than exact numbers.

`CCCCCCCC(=O)N1CCC[C@@H]1C(=O)N[C@H](CO)C(=O)N[C@H](CC(=O)O)C(=O)NCC(=O)N[C@H](CCCNC(=N)N)C(=O)NCC(=O)N[C@H](Cc1c[nH]c2ccccc12)C(=O)N[C@H](Cc1c[nH]c2ccccc12)C(=O)N[C@H](CC(C)C)C(=O)N[C@H](C)C(=O)N[C@H](CCCNC(=N)N)C(=O)N[C@H](CCC(N)=O)C(=O)N[C@H](CC(C)C)C(=O)N[C@H](C)C(=O)N[C@H](CCCNC(=N)N)C(=O)N[C@H](CC(C)C)C(=O)N[C@H](C)C(=O)N[C@H](CCC(N)=O)C(=O)N[C@H](CC(C)C)C(=O)N[C@H](C)C(=O)N[C@H](CCCCN)C(=O)N[C@H](CC(C)C)C(=O)N[C@@H](C(=O)N1CCC[C@@H]1C(=O)N[C@@H](C(=O)O)C(C)C)[C@H](C)O` [BCL-135] (Octanoyl-[dP][dS][dD]G[dR]G[dW][dW][dL][dA][dR][dQ][dL][dA][dR][dL][dA][dQ][dL][dA][dK][dL][dT][dP][dV]-OH; C-terminus assumed) had a 50% effective concentration (EC50) of 2 to 10 µM.

For `CCCCCCCC(=O)N[C@H](CC(C)C)C(=O)N[C@@H](C(=O)N[C@H](CCCNC(=N)N)C(=O)N[C@H](CCC(N)=O)C(=O)N[C@H](CC(C)C)C(=O)N[C@H](C)C(=O)N[C@H](CCCNC(=N)N)C(=O)N[C@H](CC(C)C)C(=O)N[C@H](C)C(=O)N[C@H](CCC(N)=O)C(=O)N[C@H](CC(C)C)C(=O)N[C@H](C)C(=O)N[C@H](CCCCN)C(=O)N[C@H](CC(C)C)C(=O)N[C@@H](C(=O)N1CCC[C@@H]1C(=O)N[C@@H](C(=O)O)C(C)C)[C@H](C)O)C(C)C` [BCL-138] (Octanoyl-[dL][dV][dR][dQ][dL][dA][dR][dL][dA][dQ][dL][dA][dK][dL][dT][dP][dV]-OH; C-terminus assumed), the cytotoxic activity result was “Lack of cytotoxic activity” and the half-maximal effective concentration (EC50) is greater than 80 µM.

`CC(C)C[C@@H](NC(=O)[C@@H](Cc1c[nH]c2ccccc12)NC(=O)[C@@H](N)CCCNC(=N)N)C(=O)N[C@H](C)C(=O)N[C@H](CCCNC(=N)N)C(=O)N[C@H](CCC(N)=O)C(=O)N[C@H](CC(C)C)C(=O)N[C@H](C)C(=O)N[C@H](CCCNC(=N)N)C(=O)N[C@H](CC(C)C)C(=O)N[C@H](C)C(=O)N[C@H](CCC(N)=O)C(=O)N[C@H](CC(C)C)C(=O)N[C@H](C)C(=O)N[C@H](CCCCN)C(=O)N[C@H](CC(C)C)C(=O)N[C@@H](C(=O)N1CCC[C@@H]1C(=O)N[C@@H](C(=O)O)C(C)C)[C@H](C)O` [BCL-100] (H-R[dW][dL][dA][dR][dQ][dL][dA][dR][dL][dA][dQ][dL][dA][dK][dL][dT][dP][dV]-OH; N-terminus and C-terminus assumed) registered an EC50 of less than 2 µM.

Turning to `CC(C)C[C@@H](NC(=O)[C@@H](C)NC(=O)[C@@H](C)NC(=O)[C@@H](CC(C)C)NC(=O)[C@@H](CCC(N)=O)NC(=O)[C@@H](C)NC(=O)[C@@H](C)NC(=O)[C@@H](CC(C)C)NC(=O)[C@@H](Cc1c[nH]c2ccccc12)NC(=O)[C@@H](Cc1c[nH]c2ccccc12)NC(=O)CNC(=O)[C@@H](CCCNC(=N)N)NC(=O)CNC(=O)[C@@H](CC(=O)O)NC(=O)[C@@H](CO)NC(=O)[C@H]1CCCN1)C(=O)N[C@H](C)C(=O)N[C@H](CCC(N)=O)C(=O)N[C@H](CC(C)C)C(=O)N[C@H](C)C(=O)N[C@H](CCCCN)C(=O)N[C@H](CC(C)C)C(=O)N[C@@H](C(=O)N1CCC[C@@H]1C(=O)N[C@@H](C(=O)O)C(C)C)[C@H](C)O` [BCL-134, reference compound] (H-[dP][dS][dD]G[dR]G[dW][dW][dL][dA][dA][dQ][dL][dA][dA][dL][dA][dQ][dL][dA][dK][dL][dT][dP][dV]-OH; N-terminus and C-terminus assumed), the cytotoxic activity result is reported as “Lack of cytotoxic activity” and the concentration giving a half-maximal response (EC50) is greater than 80 µM.

On to `CC(C)C[C@@H](NC(=O)[C@@H](Cc1c[nH]c2ccccc12)NC(=O)[C@@H](N)Cc1ccccc1)C(=O)N[C@H](C)C(=O)N[C@H](CCCNC(=N)N)C(=O)N[C@H](CCC(N)=O)C(=O)N[C@H](CC(C)C)C(=O)N[C@H](C)C(=O)N[C@H](CCCNC(=N)N)C(=O)N[C@H](CC(C)C)C(=O)N[C@H](C)C(=O)N[C@H](CCC(N)=O)C(=O)N[C@H](CC(C)C)C(=O)N[C@H](C)C(=O)N[C@H](CCCCN)C(=O)N[C@H](CC(C)C)C(=O)N[C@@H](C(=O)N1CCC[C@@H]1C(=O)N[C@@H](C(=O)O)C(C)C)[C@H](C)O` [BCL-99] (H-F[dW][dL][dA][dR][dQ][dL][dA][dR][dL][dA][dQ][dL][dA][dK][dL][dT][dP][dV]-OH; N-terminus and C-terminus assumed), for which the concentration giving a half-maximal response (EC50) was in the range of 2 to 10 µM.

Compound `CC(C)C[C@@H](NC(=O)[C@@H](CCCNC(=N)N)NC(=O)[C@@H](C)NC(=O)[C@@H](CC(C)C)NC(=O)[C@@H](CCC(N)=O)NC(=O)[C@@H](CCCNC(=N)N)NC(=O)[C@@H](CC(C)C)NC(=O)[C@@H](CC(C)C)NC(=O)[C@@H](Cc1c[nH]c2ccccc12)NC(=O)[C@H](N)Cc1c[nH]c2ccccc12)C(=O)N[C@H](C)C(=O)N[C@H](CCC(N)=O)C(=O)N[C@H](CC(C)C)C(=O)N[C@H](C)C(=O)N[C@H](CCCCN)C(=O)N[C@H](CC(C)C)C(=O)N[C@@H](C(=O)N1CCC[C@@H]1C(=O)N[C@@H](C(=O)O)C(C)C)[C@H](C)O` [BCL-128] (H-[dW][dW][dL][dL][dR][dQ][dL][dA][dR][dL][dA][dQ][dL][dA][dK][dL][dT][dP][dV]-OH; N-terminus and C-terminus assumed) gave an EC50 of less than 2 µM.

`CC(C)C[C@@H](NC(=O)[C@@H](Cc1ccccc1)NC(=O)[C@H](N)Cc1c[nH]c2ccccc12)C(=O)N[C@H](C)C(=O)N[C@H](CCCNC(=N)N)C(=O)N[C@H](CCC(N)=O)C(=O)N[C@H](CC(C)C)C(=O)N[C@H](C)C(=O)N[C@H](CCCNC(=N)N)C(=O)N[C@H](CC(C)C)C(=O)N[C@H](C)C(=O)N[C@H](CCC(N)=O)C(=O)N[C@H](CC(C)C)C(=O)N[C@H](C)C(=O)N[C@H](CCCCN)C(=O)N[C@H](CC(C)C)C(=O)N[C@@H](C(=O)N1CCC[C@@H]1C(=O)N[C@@H](C(=O)O)C(C)C)[C@H](C)O` [BCL-81] (H-[dW][dF][dL][dA][dR][dQ][dL][dA][dR][dL][dA][dQ][dL][dA][dK][dL][dT][dP][dV]-OH; N-terminus and C-terminus assumed) had a 50% effective concentration (EC50) of 2 to 10 µM.

In turn, `CC(C)C[C@@H](NC(=O)[C@@H](CCC(N)=O)NC(=O)[C@@H](C)NC(=O)[C@@H](CC(C)C)NC(=O)[C@@H](CCCNC(=N)N)NC(=O)[C@@H](C)NC(=O)[C@@H](CC(C)C)NC(=O)[C@@H](CCC(N)=O)NC(=O)[C@@H](CCCNC(=N)N)NC(=O)[C@@H](C)NC(=O)[C@@H](CC(C)C)NC(=O)[C@@H](Cc1c[nH]c2ccccc12)NC(=O)[C@@H](Cc1c[nH]c2ccccc12)NC(=O)CNC(=O)[C@@H](CCCNC(=N)N)NC(=O)CNC(=O)[C@@H](CC(=O)O)NC(=O)[C@@H](CO)NC(=O)[C@H]1CCCN1)C(=O)N[C@H](C)C(=O)O` [BCL-92] (H-[dP][dS][dD]G[dR]G[dW][dW][dL][dA][dR][dQ][dL][dA][dR][dL][dA][dQ][dL][dA]-OH; N-terminus and C-terminus assumed) showed an EC50 of 2 to 10 µM.

Broadly, the EC50 is the concentration that produces a half-maximal response. A higher EC50 goes with a less potent agent.

(Values after patent US12552846B2, “Modified BCL9 mimetic peptides” (Sapience Therapeutics, Inc., priority 2019, dated 2026).)
